Tests used:
[1] = target: T1, ornithine 4,5-aminomutase (OAM) (Acetoanaerobium sticklandii, UniProt E3PY95); assay: UV-visible spectra, external aldimine formation; type: binding; set-up: gene oraE; C-terminal His6 (pET-OAMH2), expressed in E. coli; purified apoenzyme reconstituted with PLP and AdoCbl; OAM dimer printed (alpha2beta2 known); conditions: aerobic, pH 8.5, 25 °C, 5 mM; inhibitor, covalent (PLP external aldimine)
T1 sequence (E3PY95 1-740): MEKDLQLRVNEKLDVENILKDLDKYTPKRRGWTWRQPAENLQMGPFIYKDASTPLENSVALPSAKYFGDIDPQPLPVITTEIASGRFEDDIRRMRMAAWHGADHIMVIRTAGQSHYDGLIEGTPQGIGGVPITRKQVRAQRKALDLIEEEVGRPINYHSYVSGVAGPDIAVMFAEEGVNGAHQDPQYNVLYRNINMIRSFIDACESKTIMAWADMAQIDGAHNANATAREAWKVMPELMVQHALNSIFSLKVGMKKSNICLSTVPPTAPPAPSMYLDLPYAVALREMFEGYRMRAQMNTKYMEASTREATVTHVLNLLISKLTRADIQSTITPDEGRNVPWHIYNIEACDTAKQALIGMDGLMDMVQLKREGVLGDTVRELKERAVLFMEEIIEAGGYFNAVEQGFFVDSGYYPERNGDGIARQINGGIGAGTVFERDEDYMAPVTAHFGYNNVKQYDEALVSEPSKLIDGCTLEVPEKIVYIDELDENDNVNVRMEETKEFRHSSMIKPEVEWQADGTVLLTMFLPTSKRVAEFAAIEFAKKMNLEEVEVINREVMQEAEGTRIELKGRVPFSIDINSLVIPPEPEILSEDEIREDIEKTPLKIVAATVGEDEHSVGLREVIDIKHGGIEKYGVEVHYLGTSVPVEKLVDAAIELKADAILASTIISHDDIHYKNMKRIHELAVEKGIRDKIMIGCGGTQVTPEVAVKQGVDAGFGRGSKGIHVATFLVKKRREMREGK
T1 sequence (E3PY96 1-121 partner): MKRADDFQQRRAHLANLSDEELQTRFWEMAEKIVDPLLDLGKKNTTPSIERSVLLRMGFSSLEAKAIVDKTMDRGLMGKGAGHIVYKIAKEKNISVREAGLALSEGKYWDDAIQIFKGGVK

[2] = target: T1, ornithine 4,5-aminomutase (OAM); assay: UV-visible, stopped flow and EPR; external aldimine and Co-C homolysis; type: binding; set-up: gene oraE; C-terminal His6 (pET-OAMH2), expressed in E. coli; purified apoenzyme reconstituted with PLP and AdoCbl; OAM dimer printed (alpha2beta2 known); conditions: anaerobic, pH 8.5, 25 °C, 2.5 mM; inhibitor, covalent (PLP external aldimine)
[3] = target: T1, ornithine 4,5-aminomutase (OAM); set-up: gene oraE; conditions: anaerobic, pH 8.5, 25 °C; equimolar with apoenzyme; covalent (Lys629)

NCC(N)C(=O)O (racemic) [DL-2,3-diaminopropanoic acid]
UV-visible spectra, external aldimine formation [1]: does not induce AdoCbl bond homolysis but does lead to external aldimine formation

NCCC(N)C(=O)O (racemic) [DL-2,4-diaminobutyric acid]
UV-visible, stopped flow and EPR; external aldimine and Co-C homolysis [2]: transimination induced by the DAB binding with PLP

Cc1ncc(COP(=O)(O)O)c(C=O)c1O [PLP]
UV-visible spectra, transimination at 416 nm [3]: transimination induced by the D-ornithine binding with PLP
